According to US20250281649A1, “PROBE DIRECTED TO ENZYME ALDH1A3 AND USE THEREOF IN THE DIAGNOSIS OF GLIOBLASTOMA” (Universita' Degli Studi Del Piemonte Orientale "A. Avogadro", priority 2021, published 2025):
Entries after “also recorded” stand apart in the source; their conditions may differ.

Assays:
[1] = test system: 4T1 mammary carcinoma (triple negative ALDH1A subfamily); test: Confocal fluorescence of probes in cell lines; format: cell-based; details: 4T1, 10 μM to 100 nM
Description: (§1) All 3 enzymes belonging to the subfamily 1A of aldehyde dehydrogenases were expressed recombinantly in bacterial cells and purified to homogeneity. The pure enzymes were then used to study the interaction with the molecules according to the invention, using various in vitro biochemical assays. In particular, the affinity for the isoenzymes of the selected molecules was measured through the use of a TECAN SPARK and a TECAN SUNRISE. Fluorescence assays were performed in the presence of different protein concentrations and the activity assays were conducted by measuring NAD^+ consumption. According to their specific activity, all molecules were characterized by values of KD, KM, Ki and IC50, showing a net selectivity in specifically binding the ALDH1A3 enzyme. The probes having curcumin and recognizing the ALDH1A3 enzyme were tested in a cellular context, using four different cell lines classified by the presence or absence of the isoform studied: human glioblastoma line (U87MG, ALDH1A3 positive), embryonic kidney cell line (HEK293T, ALDH1A2 positive), human astrocyte line (hAstro, ALDH1A1 positive) and a breast cancer line (4T1, ALDHIA negative). […] The binding ability of the probes to these cell lines was also verified and confirmed by flow cytometry.
(§2) Human U87MG glioblastoma were used as ALDH1A3+ cell lines, HEK293T as ALDH1A2+ cell line, human foetal astrocytes (hASTRO) as ALDH1A1+ cell line and 4T1 mammary carcinoma as triple negative ALDHIA subfamily (checked with Western Blot analysis and RT-PCR). All these cell lines were incubated with Probe 14 and 13 at different concentrations (from 10 μM to 100 nM). At all these concentrations we observed a selectivity of probe 14 and 13 on U87MG cells after 2 h, that appeared to be cytoplasmic, no signal has been verified in HEK293T, hASTRO and 4T1 cell lines. Moreover, we incubated the two probes with cells and analyzed with FACS and we observed a significant positivity in U87MG cells, too.

[2] = test system: human foetal astrocytes (hASTRO, ALDH1A1+); test: Confocal fluorescence of probes in cell lines; format: cell-based; details: 10 μM to 100 nM
Description: as §1, §2

HEK293T (ALDH1A2+) = test: Confocal fluorescence of probes in cell lines; format: cell-based; details: 10 μM to 100 nM
Description: as §1, §2

ALDH1A3 = target: T1, ALDH1A3 (Homo sapiens, UniProt P47895); test: Fluorescence of probes in buffer and in complex with the isoenzymes (Tecan SPARK); format: binding; details: in complex with the three isoenzymes, in particular ALDH1A3
T1 construct: His-tag; made in house; host or cells: bacterial cells
T1 sequence (P47895 1-512): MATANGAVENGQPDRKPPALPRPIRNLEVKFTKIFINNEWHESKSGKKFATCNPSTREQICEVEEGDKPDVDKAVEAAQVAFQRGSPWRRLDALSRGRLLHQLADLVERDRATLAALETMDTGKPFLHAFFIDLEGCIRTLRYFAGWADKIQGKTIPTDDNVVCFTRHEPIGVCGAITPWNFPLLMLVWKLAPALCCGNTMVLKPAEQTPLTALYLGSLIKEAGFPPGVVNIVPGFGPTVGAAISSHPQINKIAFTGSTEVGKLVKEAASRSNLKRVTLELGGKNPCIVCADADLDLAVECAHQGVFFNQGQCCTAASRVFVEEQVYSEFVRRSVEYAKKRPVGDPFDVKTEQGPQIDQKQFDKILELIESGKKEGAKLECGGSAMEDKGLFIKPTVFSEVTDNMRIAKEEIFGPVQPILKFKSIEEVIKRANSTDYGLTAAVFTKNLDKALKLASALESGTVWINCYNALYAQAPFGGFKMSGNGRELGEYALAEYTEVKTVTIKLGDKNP
Description: All five compounds were dissolved in DMSO (100%) to obtain two different initial stocks, one at 10 mM and a second one at 1 mM. […] The assay can be executed at a maximum DMSO percentage of 15%. The maximum probe concentration tested was 500 uM—15% DMSO. All the compounds were tested using a Tecan—SPARK, to analyze their absorbance, excitation and emission wavelength. Based on the literature, the absorbance of the curcumin by itself is comprised between 420 and 425 nm. At first, we measured the absorbance, and from those values, we performed a 3D analysis to highlights the correct Ex and Em wavelengths. To avoid any possible background in the fluorescence signal we performed a screening of every possible buffer used in our assays.

GL261 glioblastoma cells = test: In vivo labelling of GL261 glioma in mouse brain after i.p. injection; details: GL261 tumor-bearing mouse brain, 6 hours after injection, 6 days after implantation
From the text: We used in vitro and in vivo cells from a mouse high grade glioma cell line, GL261, Briefly, twenty-four 2- to 3-month-old female C57BIC mice were stereotactically implanted under deep general anesthesia (isoflurane supplemented with nitrous oxide) with 1×10^5 GL261 glioblastoma cells. The cells were stereotactically inoculated through a burr hole by a Hamilton syringe into the left striatum (coordinates: 1 mm anteroposterior and 1 mm lateral from bregma, at a depth of 3 mm). All experimental procedures were conducted in accordance with the European Communities Council Directive of 24 Nov. 1986 (86/609 EEC), Recommendation 18/06/2007, Dir. 2010/63/UE, and the Italian law for care and use of experimental animals (DL116/92) and were approved by the Italian Ministry of Health (prot. E669C.15) and the Bioethical Committee of the University of Turin. All animals were housed under a 12-hour light-dark cycle in an environmentally controlled room. All experiments were designed to minimize the numbers of animals used and their discomfort. In each experiment, animals with tumors were allocated to two groups and i.p. injected with probe 14 or probe 13. All drugs were administered intraperitoneally, and treatments were started days 6 after tumor implantation. […] Quantitative and phenotypic evaluations were made on images acquired with a Leica TCS SP5 confocal microscope.

[3] = test system: U87MG glioblastoma (ALDH1A3+); test: Confocal fluorescence of probes in cell lines; format: cell-based, human; details: 10 μM to 100 nM, after 2 h
Description: All 3 enzymes belonging to the subfamily 1A of aldehyde dehydrogenases were expressed recombinantly in bacterial cells and purified to homogeneity. The pure enzymes were then used to study the interaction with the molecules according to the invention, using various in vitro biochemical assays. In particular, the affinity for the isoenzymes of the selected molecules was measured through the use of a TECAN SPARK and a TECAN SUNRISE. Fluorescence assays were performed in the presence of different protein concentrations and the activity assays were conducted by measuring NAD^+ consumption. According to their specific activity, all molecules were characterized by values of KD, KM, Ki and IC50, showing a net selectivity in specifically binding the ALDH1A3 enzyme. […]
Human U87MG glioblastoma were used as ALDH1A3+ cell lines, HEK293T as ALDH1A2+ cell line, human foetal astrocytes (hASTRO) as ALDH1A1+ cell line and 4T1 mammary carcinoma as triple negative ALDHIA subfamily (checked with Western Blot analysis and RT-PCR). […] Moreover, we incubated the two probes with cells and analyzed with FACS and we observed a significant positivity in U87MG cells, too.

## CCOC(=O)Cn1cc(COc2ccc(/C=C/C(O)=C/C(=O)/C=C/c3ccc(O)c(OC)c3)cc2OC)nn1 [Compound 14]
[1]
  fluorescence signal in cells: no signal
[2]
  fluorescence signal in cells: no signal
HEK293T (ALDH1A2+)
  fluorescence signal in cells: no signal
ALDH1A3
  increase of fluorescence in complex with the isoenzymes: significant positive increment
GL261 glioblastoma cells
  probe fluorescence / penetration in tumor cells in vivo: does not penetrate to any appreciable level
[3]
  fluorescence signal in cells: selectivity

## COc1cc(/C=C/C(=O)/C=C(O)/C=C/c2ccc(OCc3cn(CCOc4ccc(C=O)cc4)nn3)c(OC)c2)ccc1O [Compound 13]
[1]
  fluorescence signal in cells: no signal
[2]
  fluorescence signal in cells: no signal
HEK293T (ALDH1A2+)
  fluorescence signal in cells: no signal
ALDH1A3
  increase of fluorescence in complex with the isoenzymes: significant positive increment
GL261 glioblastoma cells
  probe fluorescence / penetration in tumor cells in vivo: fluoresce in green
[3]
  fluorescence signal in cells: selectivity; also recorded: selectively illuminate cells expressing only ALDH1A3
